Where a name gives a salt, the structure may show the parent alone.

Test system in the first series: not given
Assay: not given
Conditions: not given
On to `C=C(C)c1cccc2c1ccn2-c1ccnc(N[C@H]2CC[C@H](C(=O)N3CCn4c(C)cnc4C3)CC2)n1` (as salt: HCl) [Compound 10, {4-[4-(4-Isopropenyl-indol-1-yl)-pyrimidin-2-ylamino]-cyclohexyl}-(3-methyl-5,6-dihydro-8H-imidazo[1,2-a]pyrazin-7-yl)-methanone], for which the melting point was 220 to 224.9 °C.

Compound `O=C([C@H]1CC[C@H](Nc2nccc(-n3ccc4c(OC(F)F)cccc43)n2)CC1)N1CCn2cnnc2C1` (as salt: HCl) [Compound 27, {4-[4-(4-Difluoromethoxy-indol-1-yl)-pyrimidin-2-ylamino]-cyclohexyl}-(5,6-dihydro-8H-[1,2,4]triazolo[4,3-a]pyrazin-7-yl)-methanone] displayed a melting point of 175 to 178 °C.

Consider `CC(C)(O)c1cccc2c1nnn2-c1ccnc(N[C@H]2CC[C@H](C(=O)N3CCn4cnnc4C3)CC2)n1` (as salt: HCl) [Compound 38, (5,6-Dihydro-8H-[1,2,4]triazolo[4,3-a]pyrazin-7-yl)-(4-{4-[4-(1-hydroxy-1-methyl-ethyl)-benzotriazol-1-yl]-pyrimidin-2-ylamino}-cyclohexyl)-methanone], for which the melting point was in the range of 180 to 200 °C.

`Cc1nnc2n1CCN(C(=O)[C@H]1CC[C@H](Nc3nccc(-n4ccc5c(OC(F)F)cccc54)n3)CC1)C2` (as salt: HCl) [Compound 28, {4-[4-(4-Difluoromethoxy-indol-1-yl)-pyrimidin-2-ylamino]-cyclohexyl}-(3-methyl-5,6-dihydro-8H-[1,2,4]triazolo[4,3-a]pyrazin-7-yl)-methanone] yielded a melting point of 205 to 210 °C.

A further series relates to T1, JNK.
T1 construct: Human JNK2α2 assay contains 1 nM enzyme; Human JNK1α1 assay contains 2 nM enzyme
The series is described as follows: JNK Assay in vitro (phosphorylation of GST-ATF2 with [γ-33P] ATP). The format is biochemical, Human. Conditions: IC50 affinity values; JNK isoform (JNK1α1, JNK2α2 or JNK3) not stated; Km concentrations of ATP and substrate; 30° C. for 30 min. Here is the method:
JNK activity was measured by phosphorylation of GST-ATF2 (19-96) with [-^33P] ATP. […] Human JNK2α2 assay contains 1 nM enzyme, 1 μM ATF2, 8 μM ATP with 1 uCi [γ-^33P] ATP. Human JNK1α1 assay contains 2 nM enzyme, 1 μM ATF2, 6 μM ATP with 1 μCi [γ-^33P] ATP. Human JNK3 (Upstate Biotech #14-501M) assay contains 2 nM enzyme, 1 μM ATF2, 4 μM ATP with 1 μCi [γ-^33P] ATP. The enzyme assay was carried out in the presence or absence of several compound concentrations. JNK and compound were pre-incubated for 10 min., followed by initiation of the enzymatic reaction by adding ATP and the substrate. The reaction mixture was incubated at 30° C. for 30 min. At the end of incubation, the reaction was terminated by transferring 25 μl of the reaction mixture to 150 μl of 10% glutathione Sepharose® slurry (Amersham #27-4574-01) containing 135 mM EDTA. The reaction product was captured on the affinity resin, and washed on a filtration plate (Millipore, MABVNOB50) with phosphate buffered saline for six times to remove free radionucleotide. The incorporation of ^33P into ATF2 was quantified on a microplate scintillation counter (Packard Topcount). Compound inhibition potency on JNK was measured by IC50 value generated from ten concentration inhibition curves fitted into the 3-parameter model: % inhibition=Maximum/(1+(IC50/[Inhibitor])^slope). Data were analyzed on Microsoft Excel for parameter estimation.
In the case of `Cc1nnc2n1CCN(C(=O)[C@H]1CC[C@H](Nc3nccc(-n4ccc5c(OC(F)F)cccc54)n3)CC1)C2` [Compound 28, {4-[4-(4-Difluoromethoxy-indol-1-yl)-pyrimidin-2-ylamino]-cyclohexyl}-(3-methyl-5,6-dihydro-8H-[1,2,4]triazolo[4,3-a]pyrazin-7-yl)-methanone], half-maximal inhibition (IC50) required 228 nM.

`O=C([C@H]1CC[C@H](Nc2nccc(-n3ccc4c(OC(F)F)cccc43)n2)CC1)N1CCn2cnnc2C1` [Compound 27, {4-[4-(4-Difluoromethoxy-indol-1-yl)-pyrimidin-2-ylamino]-cyclohexyl}-(5,6-dihydro-8H-[1,2,4]triazolo[4,3-a]pyrazin-7-yl)-methanone] returned an IC50 of 269 nM.

On to `C=C(C)c1cccc2c1ccn2-c1ccnc(N[C@H]2CC[C@H](C(=O)N3CCn4c(C)cnc4C3)CC2)n1` [Compound 10, {4-[4-(4-Isopropenyl-indol-1-yl)-pyrimidin-2-ylamino]-cyclohexyl}-(3-methyl-5,6-dihydro-8H-imidazo[1,2-a]pyrazin-7-yl)-methanone], for which it took 65 nM to reach half-maximal inhibition (IC50).

The compound `O=C([C@H]1CC[C@H](Nc2nccc(-c3cnc4c(C(F)(F)F)cccn34)n2)CC1)N1CCn2cnnc2C1` [Compound 42, (5,6-Dihydro-8H-[1,2,4]triazolo[4,3-a]pyrazin-7-yl)-{4-[4-(8-trifluoromethyl-imidazo[1,2-a]pyridin-3-yl)-pyrimidin-2-ylamino]-cyclohexyl}-methanon] had an IC50 of 205 nM.

On to `Cc1nnc2n1CCN(C(=O)[C@H]1CC[C@H](Nc3nccc(-n4ccc5c(OCCCS(C)(=O)=O)cccc54)n3)CC1)C2` [Compound 23, (4-{4-[4-(3-Methanesulfonyl-propoxy)-indol-1-yl]-pyrimidin-2-ylamino}-cyclohexyl)-(3-methyl-5,6-dihydro-8H-[1,2,4]triazolo[4,3-a]pyrazin-7-yl)-methanone], for which the IC50 turned out to be 32 nM.

With `O=C([C@H]1CC[C@H](Nc2nccc(-n3ccc4c(OCC5CCS(=O)(=O)C5)cccc43)n2)CC1)N1CCn2cnnc2C1` (some centres unmarked) [Compound 24, (5,6-Dihydro-8H-[1,2,4]triazolo[4,3-a]pyrazin-7-yl)-(4-{4-[4-(1,1-dioxo-tetrahydro-1λ6-thiophen-3-ylmethoxy)-indol-1-yl]-pyrimidin-2-ylamino}-cyclohexyl)-methanone], the IC50 was found to be 17 nM.

In turn, `O=C([C@H]1CC[C@H](Nc2nccc(-n3ncc4c(OCC5CCS(=O)(=O)C5)cccc43)n2)CC1)N1CCn2ccnc2C1` (some centres unmarked) [Compound 15, (5,6-Dihydro-8H-imidazo[1,2-a]pyrazin-7-yl)-(4-{4-[4-(1,1-dioxo-tetrahydro-1λ6-thiophen-3-ylmethoxy)-indazol-1-yl]-pyrimidin-2-ylamino}-cyclohexyl)-methanone] registered an IC50 of 12 nM.

`Cc1cccc2c1nnn2-c1ccnc(N[C@H]2CC[C@H](C(=O)N3CCn4cnnc4C3)CC2)n1` [Compound 34, (5,6-Dihydro-8H-[1,2,4]triazolo[4,3-a]pyrazin-7-yl)-{4-[4-(4-methyl-benzotriazol-1-yl)-pyrimidin-2-ylamino]-cyclohexyl}-methanone] had an IC50 of 59 nM.

Take `Cc1cnc2n1CCN(C(=O)[C@H]1CC[C@H](Nc3nccc(-n4nnc5c(C(C)(C)O)cccc54)n3)CC1)C2` [Compound 41, (4-{4-[4-(1-Hydroxy-1-methyl-ethyl)-benzotriazol-1-yl]-pyrimidin-2-ylamino}-cyclohexyl)-(3-methyl-5,6-dihydro-8H-imidazo[1,2-a]pyrazin-7-yl)-methanone]: the IC50 was 52 nM.

The compound `O=C([C@H]1CC[C@@H](Nc2nccc(-n3nnc4c(C(F)(F)F)cccc43)n2)CC1)N1CCn2cnnc2C1` [Compound 37, (5,6-Dihydro-8H-[1,2,4]triazolo[4,3-a]pyrazin-7-yl)-{4-[4-(4-trifluoromethyl-benzotriazol-1-yl)-pyrimidin-2-ylamino]-cyclohexyl}-methanone] yielded an IC50 of 180 nM.

As to `Cc1cccc2c1nnn2-c1ccnc(N[C@H]2CC[C@H](C(=O)N3CCn4c(C)nnc4C3)CC2)n1` [Compound 35, {4-[4-(4-Methyl-benzotriazol-1-yl)-pyrimidin-2-ylamino]-cyclohexyl}-(3-methyl-5,6-dihydro-8H-[1,2,4]triazolo[4,3-a]pyrazin-7-yl)-methanone], the IC50 amounted to 38 nM.

With `C=C(C)c1cccc2c1ccn2-c1ccnc(N[C@H]2CC[C@H](C(=O)N3CCn4c(C)nnc4C3)CC2)n1` [Compound 26, {4-[4-(4-Isopropenyl-indol-1-yl)-pyrimidin-2-ylamino]-cyclohexyl}-(3-methyl-5,6-dihydro-8H-[1,2,4]triazolo[4,3-a]pyrazin-7-yl)-methanone], half-maximal inhibition (IC50) was put at 174 nM.

In turn, `Cc1cnc2n1CCN(C(=O)[C@H]1CC[C@H](Nc3nccc(-n4ccc5c(OC(F)F)cccc54)n3)CC1)C2` [Compound 11, {4-[4-(4-Difluoromethoxy-indol-1-yl)-pyrimidin-2-ylamino]-cyclohexyl}-(3-methyl-5,6-dihydro-8H-imidazo[1,2-a]pyrazin-7-yl)-methanone] showed an IC50 of 97 nM.

As to `Cc1nnc2n1CCN(C(=O)[C@H]1CC[C@H](Nc3nccc(-c4cnc5c(C(F)(F)F)cccn45)n3)CC1)C2` [Compound 43, (3-Methyl-5,6-dihydro-8H-[1,2,4]triazolo[4,3-a]pyrazin-7-yl)-{4-[4-(8-trifluoromethyl-imidazo[1,2-a]pyridin-3-yl)-pyrimidin-2-ylamino]-cyclohexyl}-methanone], the IC50 came out at 234 nM.

On to `CC(C)(O)c1cccc2c1nnn2-c1ccnc(N[C@H]2CC[C@H](C(=O)N3CCn4cnnc4C3)CC2)n1` [Compound 38, (5,6-Dihydro-8H-[1,2,4]triazolo[4,3-a]pyrazin-7-yl)-(4-{4-[4-(1-hydroxy-1-methyl-ethyl)-benzotriazol-1-yl]-pyrimidin-2-ylamino}-cyclohexyl)-methanone], for which the IC50 worked out at 49 nM.

In turn, `C=C(C)c1cccc2c1ccn2-c1ccnc(N[C@H]2CC[C@H](C(=O)N3CCn4cnnc4C3)CC2)n1` [Compound 25, (5,6-Dihydro-8H-[1,2,4]triazolo[4,3-a]pyrazin-7-yl)-{4-[4-(4-isopropenyl-indol-1-yl)-pyrimidin-2-ylamino]-cyclohexyl}-methanone] gave an IC50 of 191 nM.

Compound `Cc1cccc2c1nnn2-c1ccnc(N[C@H]2CC[C@H](C(=O)N3CCn4cc(C(F)(F)F)nc4C3)CC2)n1` [Compound 33, {4-[4-(4-Methyl-benzotriazol-1-yl)-pyrimidin-2-ylamino]-cyclohexyl}-(2-trifluoromethyl-5,6-dihydro-8H-imidazo[1,2-a]pyrazin-7-yl)-methanone] gave an IC50 of 58 nM.

Consider `CS(=O)(=O)CCCOc1cccc2c1cnn2-c1ccnc(N[C@H]2CC[C@H](C(=O)N3CCn4cc(C(F)(F)F)nc4C3)CC2)n1` [Compound 13, (4-{4-[4-(3-Methanesulfonyl-propoxy)-indazol-1-yl]-pyrimidin-2-ylamino}-cyclohexyl)-(2-trifluoromethyl-5,6-dihydro-8H-imidazo[1,2-a]pyrazin-7-yl)-methanone], for which half-maximal inhibition (IC50) required 12 nM.

`Cc1nnc2n1CCN(C(=O)[C@H]1CC[C@H](Nc3nccc(-n4nnc5c(C(C)(C)O)cccc54)n3)CC1)C2` [Compound 39, (4-{4-[4-(1-Hydroxy-1-methyl-ethyl)-benzotriazol-1-yl]-pyrimidin-2-ylamino}-cyclohexyl)-(3-methyl-5,6-dihydro-8H-[1,2,4]triazolo[4,3-a]pyrazin-7-yl)-methanone] had an IC50 of 31 nM.

Usually melting point stands for the temperature of the solid-liquid transition. A word on the IC50: it is the concentration needed to halve the response being measured. High values mean weaker potency in that assay, low ones greater potency in that assay.

These data come from patent US20110301170A1, “Inhibitors of JNK” (priority 2010, published 2011).
